{"source": "patent US7442706B2", "about": "“Methods for treating sarcopenia with a growth hormone secretagogue” (priority 2006, dated 2008)", "key": {"[1]": {"assay": "Body composition: body weight, FFM, fat mass, ASM (4-compartment model, DXA), AVF and thigh muscle (CT)", "type": "in vivo, human", "details": "for Mean Change in FFM from Baseline, 4-C / Mean Change in FFM from Baseline, DXA: n = 43", "experimental": "This example presents the 6 and 12 mo (pivotal) body composition data in all subjects studied in a 2-yr crossover study. A total of 65 healthy older [60-81 yr; BMI 26.1±3 (19-35) kg/m^2] men and women on and off HRT (hormone replacement therapy) received MK-677 (⅔ of each group) or placebo in Yr 1. Total body fat mass, % fat, and fat-free mass (FFM) were determined every 6 mo over 2 yr using a 4-compartment (4-C) model, as well as dual energy x-ray absorptiometry (DXA, QDR 2000). 4-C model components: body weight and density (BodPod); total body water (D2O dilution); total bone mineral content (DXA). Data were analyzed by way of repeated measure ANCOVA with baseline response as the model covariate. P values and confidence limits were derived based on a Bonferroni two-sided experiment wise error rate 0.05; data shown are mean (upper and lower Bonferroni 95% CL).\n(§1) Sixty-five healthy men and women (±HRT) ages 60-81 years were enrolled in a 2-year study of MK-677 (25 mg p.o. daily) or placebo. In addition to GH and IGF-I, the primary endpoints were fat-free mass (FFM), by 4-compartment model and DXA, and abdominal visceral fat (AVF) by CT. Secondary endpoints included isokinetic strength, function and quality of life (QoL); all endpoints were assessed at baseline and every 6 months, with frequent monitoring for adverse effects.\n(§2) This NIH-funded study was approved by the General Clinical Research Center (GCRC) and the University of Virginia Institutional Review Boards. All subjects gave written informed consent. A two-year, double-blind, placebo-controlled modified crossover trial of once-daily administration of an oral GH secretogogue (MK-677, 25 mg) to healthy older adults was performed.\n(§3) During the first year, subjects were randomized to MK-677 or placebo treatment. In each of 3 groups (23 men, 25 women on hormone replacement therapy (HRT) and 17 women not on HRT), ⅔ received MK-677 and ⅓ received placebo. At the end of year 1, the subjects who received placebo were switched to MK-677 treatment (N= 2/0 in year 2); subjects who received MK-677 for the first year were randomized to continue MK-677 (N=20) or to placebo (N=19).\nBody Composition. The effects of treatment on FFM and total body fat were evaluated by two independent methods: a 4-compartment (4-C) model (5); and dual x-ray absorptiometry (DXA). All subjects were scanned on the same Hologic QDR-2000 in pencil beam mode as previously described (6); all scans were read by a single observer (J. L. C.). Total appendicular skeletal muscle (lean) mass (TASM) from DXA was measured as the sum of the lean soft-tissue masses for the arms and the legs as described by Heymsfield et al. (7). Total and abdominal visceral fat (AVF), and subcutaneous fat areas (cm^2), as well as thigh muscle were measured by computed tomography (CT) ((8) and all scans were read by a single observer (J. L. C.)\nThe two primary endpoints for this study are: 1) FFM, which is an important determinant of functional ability; and 2) AVF, which is the most important fat depot for cardiovascular risk. Based on a sample size of 60 subjects (40 randomized to MK-677 and 20 to placebo in year 1), this cross-over study was designed to have at least 90% power to detect a 4.1% or greater between-group difference in the change in percent FFM, with the same power to detect a 12.6% or greater between-group difference in the change in AVF (cm^2) after the initial 12-months of treatment. The sample size formula for two-sample Student's t-test was used to conduct the power analysis. The standard deviations used in the power calculations were 4.4% for percent FFM and 14.1% for AVF. Both power calculations reflect the power of a two-sided test with a type I error rate of 0.05.\nThe primary outcome data for the 6- and 12-month changes in FFM and AVF as well as for IGF-I and GH were analyzed via repeated measures ANCOVA. […]"}, "quadriceps muscle": {"tested_on": "quadriceps muscle", "details": "canines during remobilization; cited from earlier work"}, "GH": {"tested_on": "GH", "assay": "24-h mean GH levels, blood sampled every 10 minutes for 24 hours, chemiluminescence assay, 2-year placebo-controlled trial", "type": "in vivo, human", "details": "for 24-h mean GH, mean (range) fold-change / 24-h mean GH level in a person: 25 mg p.o. daily; for 24-h mean GH, mean (range) fold-change: N=43, ratio of geometric means; for 24-h mean GH level in a person: baseline 0.37", "experimental": "as §1, §2, §3\nGrowth hormone (GH) concentrations and pulsatile characteristics. Blood samples were obtained every 10 minutes for 24 hours for measurement of GH in a sensitive chemiluminescence assay (2); endogenous GH secretory dynamics were assessed using an automated multiple-parameter deconvolution method as previously reported (1;3).\nThe primary outcome data for the 6- and 12-month changes in FFM and AVF as well as for IGF-I and GH were analyzed via repeated measures ANCOVA. The FFM and AVF data were analyzed on the same scale as they were measured, while the IGF-I and GH data were transformed to the natural logarithmic scale before conducting the statistical analyses so that the variance and normality assumptions of the linear model were not violated.\nSince the FFM and AVF data were analyzed on the same scale as initially measured, the 6- and 12-month changes are reported as a difference between arithmetic means; changes in IGF-I and GH data analyzed on the natural algorithmic scale are reported as a ratio of geometric means."}, "[2]": {"assay": "Function tests and quality of life questionnaires", "type": "in vivo, human", "details": "year 1", "experimental": "Quality of Life Assessments. Subjects completed 4 questionnaires to assess quality of life and general well-being: the 20-item Short Form Health Survey (SF-20); Beck Depression Inventory (BDI); Pittsburgh Sleep Quality Index (PSQI); and the Body Cathexis Scale (BCS).\nFunction. Function tests included walking 30 meters as quickly as possible, walking as far as possible in 6 minutes, descending and ascending 4 flights of stairs and rising and sitting 5 times from an armless chair with an 18″ seat height.\nCorrection for Height and Gender. All strength and function measurements were analyzed per kg of skeletal muscle (ASM). Baseline arm ASM and leg ASM were used for shoulder and knee strength, respectively; baseline TASM (sum of arms and legs) was used for the function tests.\nWith regard to the quality of life data, a Factor Analysis of the different scales of the questionnaires was performed to create an overall well-being factor (16). Initially, study subjects were used as their own internal controls and assessed if there was change over time in overall well being. Using the hierarchical linear modeling (HLM), a growth curve analysis was conducted, testing within-person linear and curvilinear change in overall well being over time."}, "[3]": {"details": "6 mo, 25 mg p.o. daily, mean (Bonferroni 95% CL)"}, "[4]": {"details": "12 mo, 25 mg p.o. daily, methanesulfonate"}}, "note": "Marks after values point to notes of the source that are not given here."}
{"smiles": "CC(C)(N)C(=O)N[C@H](COCc1ccccc1)C(=O)N1CCC2(CC1)CN(S(C)(=O)=O)c1ccccc12.CS(=O)(=O)O", "note": "[MK-677, N-[1(R)-[(1,2-dihydro-1-methanesulfonylspiro[3H-indole-3,4′-piperidin]-1′-yl)carbonyl]-2-(phenylmethyloxy)ethyl]-2-amino-2-methylpropanamide methanesulfonate]", "values": [{"measurement": "increase in appendicular skeletal muscle compared to placebo", "setting": "[1]; 25 mg orally daily, over the first year", "result": 1.6, "unit": "kg"}, {"measurement": "Total ASM change from baseline and vs. placebo", "setting": "[1]; 6 and 12 months, DXA", "result": "significantly increased"}, {"measurement": "Estimated Difference in Change (MK-677 vs Placebo), Body Wt", "setting": "[1]; 6 mo, 25 mg p.o. daily", "result": "2.3 (0.8-3.8)*** kg"}, {"measurement": "Estimated Difference in Change (MK-677 vs Placebo), FFM, 4-C", "setting": "[1]; 6 mo, 25 mg p.o. daily", "result": "1.28 (0.21-2.36)* kg"}, {"measurement": "Estimated Difference in Change (MK-677 vs Placebo), FFM, DXA", "setting": "[1]; 6 mo, 25 mg p.o. daily", "result": "1.15 (0.28-2.02)** kg"}, {"measurement": "Mean Change in FFM from Baseline, 4-C", "setting": "[1]; [3]", "result": "1.12 (0.48-1.75) kg"}, {"measurement": "Mean Change in FFM from Baseline, DXA", "setting": "[1]; [3]", "result": "0.98 (0.47-1.48) kg"}, {"measurement": "Total body weight increase", "setting": "[1]; 6 months, 25 mg p.o. daily, placebo 0.7 kg", "result": 3.1, "unit": "kg"}, {"measurement": "Estimated Difference in Change (MK-677 vs Placebo), Body Wt", "setting": "[1]; 12 mo, 25 mg p.o. daily", "result": "1.9 (0.5-3.4)** kg"}, {"measurement": "Estimated Difference in Change (MK-677 vs Placebo), FFM, 4-C", "setting": "[1]; 12 mo, 25 mg p.o. daily", "result": "1.64 (0.56-2.71)** kg"}, {"measurement": "Estimated Difference in Change (MK-677 vs Placebo), FFM, DXA", "setting": "[1]; 12 mo, 25 mg p.o. daily", "result": "1.54 (0.67-2.41)*** kg"}, {"measurement": "Mean Change in FFM from Baseline, 4-C", "setting": "[1]; [4]", "result": "1.27 (0.64-1.90) kg"}, {"measurement": "Mean Change in FFM from Baseline, DXA", "setting": "[1]; [4]", "result": "1.09 (0.58-1.59) kg"}, {"measurement": "increase in thigh muscle area measured by CT vs. placebo", "setting": "[1]; 12 months", "result": "did not reach statistical significance"}, {"measurement": "Total body weight increase", "setting": "[1]; 12 months, 25 mg p.o. daily, placebo 0.8", "result": 2.7, "unit": "kg"}, {"measurement": "total body fat increase from baseline, DXA", "setting": "[1]; 12 months, 25 mg p.o. daily, placebo 1.1 kg", "result": 1.8, "unit": "kg"}, {"measurement": "mean AVF increase from baseline, CT", "setting": "[1]; 12 months, 25 mg p.o. daily, placebo 4.2 cm^2", "result": 8.4, "unit": "cm^2"}, {"measurement": "Subcutaneous fat change from baseline", "setting": "[1]; 12 months, CT", "result": "significantly increased from baseline"}, {"measurement": "leg ASM change vs. baseline", "setting": "[1]; 12 months, DXA", "result": "increased significantly"}, {"measurement": "total body fat, difference between MK-677 and placebo groups", "setting": "[1]; 12 months, DXA", "result": "no significant difference between groups"}, {"measurement": "increase in FFM of the first year, in subjects treated for 2 yr", "setting": "[1]; Yr 2, n=17, descriptive data", "result": "maintained"}, {"measurement": "increase in FFM in subjects switched from MK-677 to placebo", "setting": "[1]; yr 2, descriptive data", "result": "lost"}, {"measurement": "serum insulin-like growth factor-1 levels", "setting": "quadriceps muscle", "result": "elevated levels of serum insulin-like growth factor-1"}, {"measurement": "size and strength of the quadriceps muscle", "setting": "quadriceps muscle", "result": "increased the size and strength of the quadriceps muscle"}, {"measurement": "24-h mean GH, mean (range) fold-change", "setting": "GH; 6 months", "result": "1.9 (1.6-2.2) fold"}, {"measurement": "24-h mean GH level in a person", "setting": "GH; 6 months", "result": 1.0, "unit": "µg/L"}, {"measurement": "24-h mean GH, mean (range) fold-change", "setting": "GH; 12 months", "result": "1.8 (1.6-2.0) fold"}, {"measurement": "24-h mean GH level in a person", "setting": "GH; 12 months", "result": 0.86, "unit": "µg/L"}, {"measurement": "Deconvolution analysis of the increase in GH", "setting": "GH; secretion per peak vs. peak frequency", "result": "increased secretion per peak"}, {"measurement": "function or QoL", "setting": "[2]", "result": "did not result in changes"}]}
